Columns and labels:
Vaccinia virus Lister = assay type: cell-based; conditions: dose 3.9 mcg/m
[1] = test system: Gram-positive and Gram-negative bacteria; assay: growth inhibition of various microorganisms (overall); assay type: cell-based; conditions: overall result in words
Description: (§1) Table 1 below summarizes the minimum growth inhibitory concentrations of the BN-183B substance on various microorganisms.
(§2) The culture media used were a nutrient agar (a product of Difco).

Influenza virus A0/PR-8 = assay type: cell-based; conditions: dose 3.9 mcg/m
[2] = test system: DNA-type and RNA-type viruses; assay: antiviral activity by tissue culture test (overall); assay type: cell-based; conditions: overall result in words
[3] = test system: Infectious hematopoietic necrosis (IHN) virus of rainbow trout; assay: antiviral activity by tissue culture test; assay type: cell-based; conditions: dose 0.5 mcg/m
LD50 in mice = assay type: in vivo
[4] = test system: Herpes simplex virus type II 196; assay: anti-Herpes virus activity in mice; assay type: in vivo
solubility = assay type: physicochemical; conditions: hydrochloride
[5] = test system: Lymphocytic leukemia P-388; assay: increase in life span of mice transplanted intraperitoneally with P-388; assay type: in vivo
Description: (§3) Lymphocytic leukemia P-388 or lymphoid leukemia L-1210 cells were transplanted intraperitoneally in an amount of 1×10^6 per mouse into CDF1 mice or BDF1 mice (about 5 weeks old, body weight 20±1 g), five in one group. Twenty-four hours after the transplantation of the tumor, a solution of the BN-183B substance in distilled water for injection was administered intraperitoneally to the mice once a day for three successive days. The percent increase in life span (i.e., ILS) was measured by comparing the average number of days of survival of each treated group with that of a control group to which the BN-183B substance was not administered.

[6] = test system: Infectious pancreatic necrosis (IPN) virus of rainbow trout; assay: antiviral activity by tissue culture test; assay type: cell-based; conditions: dose 0.5 mcg/m
[7] = test system: Staphylococcus faecalis ATCC8043; assay: minimum growth inhibitory concentration; assay type: cell-based; conditions: nutrient agar
Description: as §1, §2

[8] = test system: Staphylococcus aureus Smith S-424; assay: minimum growth inhibitory concentration; assay type: cell-based; conditions: nutrient agar
Description: as §1, §2

[9] = test system: Staphylococcus aureus 209P JC-1; assay: minimum growth inhibitory concentration; assay type: cell-based; conditions: nutrient agar
Description: as §1, §2

[10] = test system: Escherichia coli K-12 IAM 1264; assay: minimum growth inhibitory concentration; assay type: cell-based; conditions: nutrient agar
Description: as §1, §2

[11] = test system: Staphylococcus epidermidis ATCC14990; assay: minimum growth inhibitory concentration; assay type: cell-based; conditions: nutrient agar
Description: as §1, §2

[12] = test system: Escherichia coli NIHJ JC-2; assay: minimum growth inhibitory concentration; assay type: cell-based; conditions: nutrient agar
Description: as §1, §2

Proteus vulgaris OX19 = assay: minimum growth inhibitory concentration; assay type: cell-based; conditions: nutrient agar
Description: as §1, §2

Herpes virus type II 196 = assay: antiviral activity by tissue culture test; assay type: cell-based; conditions: dose 3.9 mcg/m
[13] = test system: Newcastle disease virus Miyadera; assay type: cell-based; conditions: dose 3.9 mcg/m
[14] = test system: Bacillus subtilis ATCC 6633; assay: paper disc method, inhibitory zone; assay type: cell-based; conditions: pure product, 20 to 500 mcg/ml
Description: In assaying the BN-183B substance, its anti-bacterial activity is utilized and Bacillus subtilis ATCC 6633 is used as an assaying strain. A mixture of 2% of mycin assay agar (a product of Kyoei Seiyaku K.K.) and 0.5% of bacto-agar (a product of Difco) is used as an assaying culture medium. When BN-183B substance (pure product) is assayed under the above conditions, the relation between the logarithm of the concentration within the range of 20 to 500 mcg/ml and the diameter of the inhibitory zone is linear, and an inhibitory zone having a diameter of 16 to 29 mm is given corresponding to the above concentration range (paper disc method).

lymphoid leukemia L-1210 = assay: increase in life span of mice transplanted intraperitoneally with L-1210; assay type: in vivo
Description: as §3

Structure (SMILES): C[C@H](N)C(=O)N[C@@H]1[C@H]2C(=C(O)C[C@@H](O)[C@@H]2O)C(=O)O[C@]1(C)C(Cl)Cl [BN-183B substance]
- Difference of Log TCID50/ml from the Control (Vaccinia virus Lister): < 3.00 Log TCID50/ml
- inhibitory activity on Gram-positive and Gram-negative bacteria [1]: strong inhibitory activity
- Difference of Log TCID50/ml from the Control (Influenza virus A0/PR-8): 2.50
- activity against DNA-type and RNA-type viruses [2]: very strong activity
- Difference of Log TCID50/ml from the Control [3]: 3.000 Log TCID50/ml
- LD50 (LD50 in mice; intramuscular): 4.1 mg/kg
- LD50 (LD50 in mice; intraperitoneal): 4.3 mg/kg
- LD50 (LD50 in mice; intravenous): 4.1 mg/kg
- LD50 (LD50 in mice; oral): 50 mg/kg
- LD50 (LD50 in mice; subcutaneous): 6.0 mg/kg
- anti-Herpes virus effect compared with IUDR ([4]; 1.25 mg/kg BN-183B vs 100 mg/kg IUDR, i.p.): the same effect as in the group to which 100 mg/kg of IUDR was administered
- ET50 (number of days of 50% survival) ([4]; 1.25 mg/kg i.p.): 8.38 days
- Cumulative Mortality ([4]; 1.25 mg/kg i.p., day 5 from inoculation): 0%
- Cumulative Mortality ([4]; 1.25 mg/kg i.p., day 6 from inoculation): 20%
- Cumulative Mortality ([4]; 1.25 mg/kg i.p., day 7 from inoculation): 20%
- Cumulative Mortality ([4]; 1.25 mg/kg i.p., day 8 from inoculation): 60%
- Cumulative Mortality ([4]; 1.25 mg/kg i.p., day 9 from inoculation): 70%
- Cumulative Mortality ([4]; 1.25 mg/kg i.p., day 10 from inoculation): 70%
- Cumulative Mortality ([4]; 1.25 mg/kg i.p., day 11 from inoculation): 80%
- Cumulative Mortality ([4]; 1.25 mg/kg i.p., day 12 from inoculation): 90%
- Cumulative Mortality ([4]; 1.25 mg/kg i.p., day 13 from inoculation): 90%
- Cumulative Mortality ([4]; 1.25 mg/kg i.p., day 14 from inoculation): 90%
- ET50 (number of days of 50% survival) ([4]; 2.5 mg/kg i.p.): 7.65 days
- Cumulative Mortality ([4]; 2.5 mg/kg i.p., day 5 from inoculation): 0%
- Cumulative Mortality ([4]; 2.5 mg/kg i.p., day 6 from inoculation): 10%
- Cumulative Mortality ([4]; 2.5 mg/kg i.p., day 7 from inoculation): 20%
- Cumulative Mortality ([4]; 2.5 mg/kg i.p., day 8 from inoculation): 70%
- Cumulative Mortality ([4]; 2.5 mg/kg i.p., day 9 from inoculation): 80%
- Cumulative Mortality ([4]; 2.5 mg/kg i.p., day 10 from inoculation): 100%
- Solubility in acetone (solubility; acetone): scarcely soluble
- Solubility in chloroform (solubility; chloroform): scarcely soluble
- Solubility in ethyl acetate (solubility; ethyl acetate): scarcely soluble
- Solubility in methanol (solubility; methanol): slightly soluble
- Solubility in water (solubility; water): Very soluble
- Percent Increase in Life Span ([5]; P-388, 0.25 mg/kg i.p. once a day for three days): 32.1%
- Percent Increase in Life Span ([5]; P-388, 0.5 mg/kg i.p. once a day for three days): 41.5%
- Percent Increase in Life Span ([5]; P-388, 1 mg/kg i.p. once a day for three days): 54.7%
- Percent Increase in Life Span ([5]; P-388, 2 mg/kg i.p. once a day for three days): 79.2%
- Percent Increase in Life Span ([5]; P-388, 4 mg/kg i.p. once a day for three days): 66.0%
- Difference of Log TCID50/ml from the Control [6]: 6.801 Log TCID50/ml
- Minimum Growth Inhibitory Concentration [7]: 0.39 µg/mL
- Minimum Growth Inhibitory Concentration [8]: 0.20 µg/mL
- Minimum Growth Inhibitory Concentration [9]: 0.20 µg/mL
- Minimum Growth Inhibitory Concentration [10]: 0.78 µg/mL
- Minimum Growth Inhibitory Concentration [11]: 0.20 µg/mL
- Minimum Growth Inhibitory Concentration [12]: 1.56 µg/mL
- Minimum Growth Inhibitory Concentration (Proteus vulgaris OX19): 6.25 µg/mL
- Difference of Log TCID50/ml from the Control (Herpes virus type II 196): 3.83 Log TCID50/ml
- Difference of Log TCID50/ml from the Control [13]: 6.00 Log TCID50/ml
- diameter of the inhibitory zone [14]: 16 to 29 mm
- Percent Increase in Life Span (lymphoid leukemia L-1210; L-1210, 0.25 mg/kg i.p. once a day for three days): 10.8%
- Percent Increase in Life Span (lymphoid leukemia L-1210; L-1210, 0.5 mg/kg i.p. once a day for three days): 35.1%
- Percent Increase in Life Span (lymphoid leukemia L-1210; L-1210, 1 mg/kg i.p. once a day for three days): 32.4%
- Percent Increase in Life Span (lymphoid leukemia L-1210; L-1210, 2 mg/kg i.p. once a day for three days): 45.9%
- Percent Increase in Life Span (lymphoid leukemia L-1210; L-1210, 4 mg/kg i.p. once a day for three days): 59.5%

Structure (SMILES): O=c1[nH]c(=O)n([C@H]2C[C@H](O)[C@@H](CO)O2)cc1I [IUDR, 5-iodo-2'-deoxyuridine, reference compound]
- ET50 (number of days of 50% survival) ([4]; 100 mg/kg i.p.): 8.50 days
- Cumulative Mortality ([4]; 100 mg/kg i.p., day 5 from inoculation): 0%
- Cumulative Mortality ([4]; 100 mg/kg i.p., day 6 from inoculation): 0%
- Cumulative Mortality ([4]; 100 mg/kg i.p., day 7 from inoculation): 30%
- Cumulative Mortality ([4]; 100 mg/kg i.p., day 8 from inoculation): 40%
- Cumulative Mortality ([4]; 100 mg/kg i.p., day 9 from inoculation): 60%
- Cumulative Mortality ([4]; 100 mg/kg i.p., day 10 from inoculation): 70%
- Cumulative Mortality ([4]; 100 mg/kg i.p., day 11 from inoculation): 70%
- Cumulative Mortality ([4]; 100 mg/kg i.p., day 12 from inoculation): 70%
- Cumulative Mortality ([4]; 100 mg/kg i.p., day 13 from inoculation): 70%
- Cumulative Mortality ([4]; 100 mg/kg i.p., day 14 from inoculation): 70%

Source: US4283389A, “Novel antibiotic, BN-183B substance” (Meiji Seika Kaisha Ltd., priority 1978, dated 1981)
